Laboratory results taken from ChEMBL document CHEMBL3638960, “4,5-dihydro-oxazol-2yl derivatives” (2014).

Target: Trace amine-associated receptor 1 (Mus musculus, UniProt Q923Y8)
Test: Binding assay: Binding assay was performed at 4 C. in a final volume of 1 ml, and with an incubation time of 30 min. The radioligand [3H]-rac-2-(1,2,3,4-tetrahydro-1-naphthyl)-2-imidazoline was used at a concentration equal to the calculated Kd value of 60 nM to give a bound at around 0.1% of the total added radioligand concentration, and a specific binding which represented approximately 70-80% of the total binding. Non-specific binding was defined as the amount of [3H]-rac-2-(1,2,3,4-tetrahydro-1-naphthyl)-2-imidazoline bound in the presence of the appropriate unlabelled ligand (10 μM). Competing ligands were tested in a wide range of concentrations ([…]).

Chain of Trace amine-associated receptor 1 (Q923Y8 whole entry): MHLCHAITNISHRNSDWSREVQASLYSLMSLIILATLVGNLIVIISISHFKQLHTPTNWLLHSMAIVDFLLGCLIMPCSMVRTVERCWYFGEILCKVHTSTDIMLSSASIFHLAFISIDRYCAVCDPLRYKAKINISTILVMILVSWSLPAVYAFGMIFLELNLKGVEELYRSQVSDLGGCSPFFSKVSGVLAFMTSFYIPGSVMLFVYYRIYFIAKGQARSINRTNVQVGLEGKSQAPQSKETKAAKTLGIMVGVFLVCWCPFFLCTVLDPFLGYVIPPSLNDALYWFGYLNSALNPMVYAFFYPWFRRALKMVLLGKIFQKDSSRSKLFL

NC1=N[C@@H](CCC2(c3ccccc3)CC2)CO1
Ki: 0.5 nM
